In PMC6017319, “Potent GH20 N-Acetyl-β-D-hexosaminidase Inhibitors: N-Substituted 3-acetamido-4-amino-5-hydroxymethyl-cyclopentanediols” (Molecules : A Journal of Synthetic Chemistry and Natural …, 2018) one finds IC50 and Ki data, which are given here for five compounds.

Where two headings read alike, the source gives them in different places.

The target in experiment [1] is T1, human lysosomal N-acetyl-β-hexosaminidase A (Homo sapiens, UniProt P06865).
T1 construct: endogenous in cells; host or cells: human skin fibroblasts (wild type), cell homogenate
Nature of the experiment: Human N-acetyl-β-hexosaminidase A activity in fibroblast homogenate (4-MU N-acetyl-β-glucosaminide-6-sulfate substrate). It counts as biochemical. Conditions: normal human skin fibroblast homogenate, pH 4.4, 37 °C, 60 min; read-out: IC50 with human lysosomal N-acetyl-β-D-hexosaminidase A. From the text:
All cells used in this study were between the third and nineteenth passages.

Experiment [2] has as its target T2, Streptomyces plicatus N-acetyl-β-hexosaminidase (SpHex) (Streptomyces plicatus, UniProt O85361).
T2 construct: made in house; host or cells: E. coli
T2 sequence (O85361 1-506): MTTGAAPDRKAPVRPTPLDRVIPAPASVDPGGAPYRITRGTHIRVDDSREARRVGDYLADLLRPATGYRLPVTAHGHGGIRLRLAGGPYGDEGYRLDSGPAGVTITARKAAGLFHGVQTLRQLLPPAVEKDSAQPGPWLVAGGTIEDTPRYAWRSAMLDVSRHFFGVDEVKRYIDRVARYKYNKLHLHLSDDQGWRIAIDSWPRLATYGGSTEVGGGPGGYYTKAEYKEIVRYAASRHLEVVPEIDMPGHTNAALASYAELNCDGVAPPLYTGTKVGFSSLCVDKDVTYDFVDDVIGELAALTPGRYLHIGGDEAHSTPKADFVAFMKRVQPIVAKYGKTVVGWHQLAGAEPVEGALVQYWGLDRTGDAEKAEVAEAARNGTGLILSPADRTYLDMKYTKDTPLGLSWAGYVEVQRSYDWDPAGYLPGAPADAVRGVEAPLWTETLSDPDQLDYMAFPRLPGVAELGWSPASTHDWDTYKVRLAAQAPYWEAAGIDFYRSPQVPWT
Also on record: method as in PMID 11828466. Conditions: with the same enzyme; read-out: Ki with SpHex (reference compound); cited from earlier work.

Experiment [3] concerns the target T2, Streptomyces plicatus N-acetyl-β-hexosaminidase (SpHex). The experiment is described as follows: SpHex kinetic inhibition assay (4-nitrophenyl N-acetyl-β-D-glucosaminide substrate, competitive model). It counts as biochemical. As for the experimental part:
Streptomyces plicatus N-acetyl-β-hexosaminidase, SpHex, was expressed and purified in E. coli as described previously. Kinetic studies were performed at 25 °C in the assay buffer (sodium phosphate (50 mM), sodium citrate (50 mM), NaCl (100 mM), BSA (2 mg/mL), pH = 6.0). The enzyme was incubated with different concentrations of the inhibitors for 2–5 min prior to the start of the reaction by addition of the substrate (4-nitrophenyl N-acetyl-β-D-glucosaminide) and the initial rates were measured by monitoring the increase in absorbance at 405 nm for three to five minutes using a microplate reader (Synergy H1, BioTek, VT, USA). Ki determinations were performed using two or three different substrate concentrations. For each one of these substrate concentrations a range of five to eight different inhibitor concentrations bracketing the ultimately determined Ki value were used. Dixon plots (1/rate vs [I]) were constructed to validate the use of a competitive inhibition model. The data were then fit to a competitive inhibition model using non-linear regression analysis with GraFit 7.0 (Erithacus Software, UK). Assays were done twice using enzyme concentrations of 0.3 nM and 0.03 nM respectively in order to check compliance with the assumptions of Michaelis Menten kinetics ([E] << [I]). In addition, for compound 25, the assays were done a third time with the concentration of enzyme lowered to 0.003 nM. In all cases, the Ki values were in good agreement.

T1 sequence (P06865 89-529): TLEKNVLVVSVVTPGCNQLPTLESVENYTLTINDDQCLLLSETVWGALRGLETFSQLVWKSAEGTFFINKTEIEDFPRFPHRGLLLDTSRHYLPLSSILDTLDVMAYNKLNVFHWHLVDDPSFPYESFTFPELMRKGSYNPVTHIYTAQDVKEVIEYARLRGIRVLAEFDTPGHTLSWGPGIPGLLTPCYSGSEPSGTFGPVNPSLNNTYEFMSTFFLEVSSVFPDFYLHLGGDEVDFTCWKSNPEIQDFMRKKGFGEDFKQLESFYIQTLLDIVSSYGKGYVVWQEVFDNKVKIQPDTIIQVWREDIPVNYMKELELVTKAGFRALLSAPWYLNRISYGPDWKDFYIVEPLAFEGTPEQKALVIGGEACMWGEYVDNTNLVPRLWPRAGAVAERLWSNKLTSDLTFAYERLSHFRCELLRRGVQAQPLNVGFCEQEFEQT
T1 sequence (P07686 122-311 partner limits assumed): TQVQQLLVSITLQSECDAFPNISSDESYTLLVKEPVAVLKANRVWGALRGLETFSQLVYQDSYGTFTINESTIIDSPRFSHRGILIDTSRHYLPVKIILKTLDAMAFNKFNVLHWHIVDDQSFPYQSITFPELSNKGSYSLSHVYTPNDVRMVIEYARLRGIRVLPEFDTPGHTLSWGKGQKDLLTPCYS
T1 sequence (P07686 315-556 partner limits assumed): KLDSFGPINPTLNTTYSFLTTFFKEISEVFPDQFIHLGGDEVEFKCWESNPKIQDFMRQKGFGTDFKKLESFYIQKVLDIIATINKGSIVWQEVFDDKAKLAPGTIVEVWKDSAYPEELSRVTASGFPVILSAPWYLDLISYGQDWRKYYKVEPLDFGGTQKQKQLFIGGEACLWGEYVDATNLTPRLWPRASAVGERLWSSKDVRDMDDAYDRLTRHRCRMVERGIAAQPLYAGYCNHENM

For `CC(=O)NC1CNC(CO)C(O)C1O` (centres unmarked) [compound 1, 2-acetamido-1,2-dideoxynojirimycin, reference compound], the IC50 – broadly, the concentration needed to halve the response being measured – in experiment [1] was 31000 nM. Also, the Ki (usually the dissociation constant of the complex between target and ligand, obtained from inhibition or displacement) in experiment [2] is 80000 nM.

For the compound `CC(=O)NC1C(N)C(CO)C(O)C1O` (centres unmarked) [compound 20], the Ki in experiment [3] (25 °C, pH 6.0, competitive inhibition model, read-out: Ki-values with SpHex) stood at 0.7 nM.

For `CCCCCCNC1C(CO)C(O)C(O)C1NC(C)=O` (centres unmarked) [compound 21], the IC50 in experiment [1] was 880 nM. The Ki in experiment [3] was 0.6 nM.

With `COC(=O)CCCCCNC1C(CO)C(O)C(O)C1NC(C)=O` [compound 22, (1S,2R,3S,4R,5R)-N-(Methoxycarbonyl)pentyl-3-acetamido-4-amino-5-hydroxymethyl-cyclopentanetriol], in experiment [3], the Ki worked out at 0.7 nM.

In the case of `CC(=O)NC1C(O)C(O)C(CO)C1NCCCCCCNS(=O)(=O)c1cccc2c(N(C)C)cccc12` [compound 25, (1S,2R,3S,4R,5R)-N-(6-Dansylamino)hexyl-3-acetamido-4-amino-5-hydroxymethyl-cyclopentanetriol], the IC50 in experiment [1] amounted to 300 nM. For the same compound, the inhibition constant (Ki) in experiment [3] stood at 0.06 nM.
